Like-named read-outs stand apart in the source and are kept apart here.
What was measured:
[1] = biological target: T1, E. coli ATP synthase (purified F1 or membrane bound F1Fo) (Escherichia coli, UniProt P0ABA6+P0ABB0+P0ABB4); experiment: biochemical; format: biochemical
[2] = test system: wild-type E. coli strain pBWU13.4/DK8; format: cell-based, Escherichia coli
[3] = biological target: T1, E. coli ATP synthase (purified F1 or membrane bound F1Fo); settings: maximal inhibition; cited from earlier work
[4] = left over ATPase activity at maximal inhibition
[5] = left over ATPase activity at maximal inhibition, purified F1 or membranes
[6] = purified F1 or membranes, preincubated 60 min at 23°C, varied concentrations
[7] = OD595 after ~20 hours growth at 37 °C, control 100, null 45

T1 sequence (P0ABA4 whole entry): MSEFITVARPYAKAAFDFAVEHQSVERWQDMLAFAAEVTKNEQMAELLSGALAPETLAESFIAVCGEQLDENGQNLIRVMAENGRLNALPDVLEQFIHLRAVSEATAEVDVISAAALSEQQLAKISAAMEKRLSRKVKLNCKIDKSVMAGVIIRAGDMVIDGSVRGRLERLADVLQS
T1 sequence (P0ABB4 2-460): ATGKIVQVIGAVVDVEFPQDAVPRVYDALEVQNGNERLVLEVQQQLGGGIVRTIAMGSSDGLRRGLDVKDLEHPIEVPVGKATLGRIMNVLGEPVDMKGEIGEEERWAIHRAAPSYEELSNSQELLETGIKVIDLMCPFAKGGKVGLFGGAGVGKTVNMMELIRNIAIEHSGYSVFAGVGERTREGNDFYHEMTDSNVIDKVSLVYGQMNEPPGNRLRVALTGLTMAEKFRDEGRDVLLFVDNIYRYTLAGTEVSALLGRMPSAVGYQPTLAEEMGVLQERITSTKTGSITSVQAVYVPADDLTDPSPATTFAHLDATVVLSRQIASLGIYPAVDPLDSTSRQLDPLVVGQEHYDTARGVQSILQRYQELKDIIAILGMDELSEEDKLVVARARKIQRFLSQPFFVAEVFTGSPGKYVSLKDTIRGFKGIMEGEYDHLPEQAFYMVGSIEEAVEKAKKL
T1 sequence (P0ABA6 whole entry): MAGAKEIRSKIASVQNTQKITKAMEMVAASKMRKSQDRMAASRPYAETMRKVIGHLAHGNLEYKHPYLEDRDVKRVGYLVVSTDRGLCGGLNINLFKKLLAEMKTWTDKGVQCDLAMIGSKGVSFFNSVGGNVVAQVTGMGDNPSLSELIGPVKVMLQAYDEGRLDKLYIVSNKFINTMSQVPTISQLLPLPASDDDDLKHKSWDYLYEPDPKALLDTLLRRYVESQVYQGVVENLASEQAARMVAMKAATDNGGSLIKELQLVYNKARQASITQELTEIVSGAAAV
T1 sequence (P0A6E6 2-139, further chain): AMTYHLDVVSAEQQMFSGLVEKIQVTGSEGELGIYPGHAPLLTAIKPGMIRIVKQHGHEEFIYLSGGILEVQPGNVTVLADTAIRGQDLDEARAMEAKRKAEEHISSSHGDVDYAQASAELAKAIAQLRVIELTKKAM
T1 sequence (P0ABB0 whole entry): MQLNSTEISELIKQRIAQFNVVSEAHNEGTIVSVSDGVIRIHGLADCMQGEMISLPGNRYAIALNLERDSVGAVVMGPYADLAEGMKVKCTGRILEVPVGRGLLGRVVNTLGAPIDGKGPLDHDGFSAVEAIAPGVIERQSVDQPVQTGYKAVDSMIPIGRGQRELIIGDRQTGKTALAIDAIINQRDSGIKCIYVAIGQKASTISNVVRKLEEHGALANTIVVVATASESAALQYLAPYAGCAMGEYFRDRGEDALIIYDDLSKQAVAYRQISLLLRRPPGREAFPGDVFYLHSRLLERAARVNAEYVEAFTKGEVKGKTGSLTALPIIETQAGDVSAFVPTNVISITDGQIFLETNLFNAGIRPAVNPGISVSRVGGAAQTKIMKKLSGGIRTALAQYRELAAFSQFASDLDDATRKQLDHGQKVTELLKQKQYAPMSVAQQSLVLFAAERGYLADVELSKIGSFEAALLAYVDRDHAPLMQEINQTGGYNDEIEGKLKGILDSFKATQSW

Oc1cccc(C=Nc2ccccc2O)c1 [PC07, 3-[[(2-Hydroxyphenyl)imino]methyl]phenol]
IC50 [1]: ~9 µM
Residual ATPase Activity (%) [1, 4]: 15%

Oc1ccc(O)cc1 [PC02, Hydroquinone]
IC50 [1]: ~20 µM
Residual ATPase Activity (%) [1]: 20%
maximum amount of inhibition of ATPase activity [1]: ~ 80%
Growth yield in limiting glucose (%) [2]: 55%

Oc1ccc(C=Nc2ccc(O)cc2)cc1 [PC11, 4-[[(4-Hydroxyphenyl)imino]methyl]phenol]
Residual ATPase Activity (%) [1, 4]: 80%
residual activity [1, 5]: ~ 80%

Oc1cccc(C=Nc2cccc(O)c2)c1 [PC10, 3-[[(3-Hydroxyphenyl)imino]methyl]phenol]
IC50 [1]: ~2.25 µM
Residual ATPase Activity (%) [1, 4]: 0%

Oc1cccc(O)c1 [PC03, Resorcinol]
Residual ATPase Activity (%) [1, 4]: 80%
residual activity [1, 5]: ~ 80%
maximum amount of inhibition of ATPase activity [1, 6]: ~ 20%
Growth yield in limiting glucose (%) [2, 7]: 79%

O=[N+]([O-])c1ccc(OP(=O)(O)Oc2ccc([N+](=O)[O-])cc2)cc1 [PC15, Bis(4-nitrophenyl)phosphate]
Residual ATPase Activity (%) [1, 4]: 60%
maximum amount of inhibition of ATPase activity [1, 6]: ~ 40%
Growth yield in limiting glucose (%) [2, 7]: 63%

O=[N+]([O-])c1ccc(N=Cc2ccccc2O)c(O)c1 [PC13, 2-[[(2-Hydroxy-4-nitrophenyl)imino]methyl]phenol]
IC50 [1]: ~5 µM
Residual ATPase Activity (%) [1, 4]: 0%

Oc1ccc(C=Nc2cccc(O)c2)cc1 [PC08, 4-[[(3-Hydroxyphenyl)imino]methyl]phenol]
IC50 [1]: ~9 µM
Residual ATPase Activity (%) [1, 4]: 0%

Oc1cccc(N=Cc2ccccc2O)c1 [PC06, 2-[[(3-Hydroxyphenyl)imino]methyl]phenol]
IC50 [1]: ~5.25 µM
Residual ATPase Activity (%) [1, 4]: 15%
Growth yield in limiting glucose (%) [2, 7]: 51%

O=[N+]([O-])c1cc(O)ccc1N=Cc1ccccc1O [PC12, 2-[[(4-Hydroxy-2-nitrophenyl)imino]methyl]phenol]
IC50 [1]: ~6 µM
Residual ATPase Activity (%) [1, 4]: 0%

Oc1ccc(/C=C/c2cc(O)cc(O)c2)cc1 [resveratrol]
inhibition of E. coli ATP synthase [3]: ~ 40%

O=[N+]([O-])c1ccc(OP(=O)(Oc2ccc([N+](=O)[O-])cc2)Oc2ccc([N+](=O)[O-])cc2)cc1 [PC14, Tris(4-nitrophenyl)phosphate]
Residual ATPase Activity (%) [1, 4]: 55%
residual activity [1, 5]: ~ 55%
maximum amount of inhibition of ATPase activity [1, 6]: ~ 45%
Growth yield in limiting glucose (%) [2, 7]: 57%

Oc1ccccc1C=Nc1ccccc1O [PC09, 2-[[(2-Hydroxyphenyl)imino]methyl]phenol]
IC50 [1]: ~7 µM
Residual ATPase Activity (%) [1, 4]: 5%

Oc1ccccc1O [PC04, Catechol]
Residual ATPase Activity (%) [1, 4]: 60%
residual activity [1, 5]: ~ 60%
maximum amount of inhibition of ATPase activity [1, 6]: ~ 40%
Growth yield in limiting glucose (%) [2, 7]: 57%

Cc1cc(O)c(C(C)C)cc1O [PC01, Dihydrothymoquinone]
Residual ATPase Activity (%) [1, 4]: 60%
residual activity [1, 5]: ~ 60%
maximum amount of inhibition of ATPase activity [1, 6]: ~ 40%
Growth yield in limiting glucose (%) [2, 7]: 66%

1,8,9-Anthracentriol [PC17]
Residual ATPase Activity (%) [1, 4]: 70%
maximum amount of inhibition of ATPase activity [1, 6]: ~ 30%
Growth yield in limiting glucose (%) [2, 7]: 69%

O=C1c2cccc(O)c2C(=O)c2c(O)cccc21 [PC16, 1,8-Dihydroxy-9,10-anthraquinone]
Residual ATPase Activity (%) [1, 4]: 78%
residual activity [1, 5]: ~ 78%
maximum amount of inhibition of ATPase activity [1, 6]: ~ 22%
Growth yield in limiting glucose (%) [2, 7]: 80%

Oc1ccc(N=Cc2ccccc2O)cc1 [PC05, 2-[[(4-hydroxyphenyl)Imino]methyl]phenol]
IC50 [1]: ~5 µM
Residual ATPase Activity (%) [1, 4]: 0%
Growth yield in limiting glucose (%) [2, 7]: 42%

Reference: PMC4303583 (International journal of biological macromolecules, 2012)
